Measured values published in article PMC7411652 (Sensors (Basel, Switzerland), 2020).
pIC50: −log10 of the molar value. Where two headings read alike, the source gives them in different places.

Columns and labels:
CYP1A1 Supersomes = details: read-out: IC50 for inhibition of CYP1A1 Supersomes; insect cell-derived microsomes, Corning-Gentest; cited from earlier work
CYP1A1 enzyme = molecular target: T1, CYP1A1 enzyme (Homo sapiens, UniProt P04798); experiment: Live-cell IC50 determination, CYP1A1 expressed in yeast cells, 7-ethoxyresorufin (7-ER) substrate; type: cell-based; details: 1 × 10^7 cells, 10 min incubation
T1 construct: expressed in transfected cells; host or cells: Saccharomyces cerevisiae W303-1A derived strains yRD+ (+CPR) and yRD-::Bax (-CPR)
T1 sequence (P04798 1-512): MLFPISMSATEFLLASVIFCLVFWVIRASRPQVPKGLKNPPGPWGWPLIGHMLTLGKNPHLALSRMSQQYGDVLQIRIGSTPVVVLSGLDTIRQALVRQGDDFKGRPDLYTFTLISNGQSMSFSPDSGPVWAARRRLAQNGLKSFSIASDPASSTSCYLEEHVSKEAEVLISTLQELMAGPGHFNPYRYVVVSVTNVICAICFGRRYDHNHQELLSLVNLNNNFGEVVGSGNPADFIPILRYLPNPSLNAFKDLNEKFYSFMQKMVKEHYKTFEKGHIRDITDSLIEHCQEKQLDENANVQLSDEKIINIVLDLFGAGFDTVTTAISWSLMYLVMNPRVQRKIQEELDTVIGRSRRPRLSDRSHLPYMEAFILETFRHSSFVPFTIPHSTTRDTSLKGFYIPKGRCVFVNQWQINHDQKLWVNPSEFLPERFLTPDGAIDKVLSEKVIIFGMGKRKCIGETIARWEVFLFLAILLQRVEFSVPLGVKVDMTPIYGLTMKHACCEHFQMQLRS
Procedure: The IC50 values were calculated using the GraphPad Prism software.

CYP1A2 Supersomes = tested on: CYP1A2 Supersomes; design: method as in PMID 19359406; details: insect cell-derived microsomes, Corning-Gentest, 10 min incubation with microsomal enzyme; read-out: IC50 for inhibition of CYP1A2 Supersomes; cited from earlier work

With `O=c1cc(-c2ccccc2)oc2c1ccc1ccccc12` [ANF, Alpha-naphthoflavone] as the compound, how does the pIC50 (CYP1A1 Supersomes) read?
Its pIC50 is 7.74.

What about the pIC50 (CYP1A1 enzyme; live yeast strain yRD+ (+CPR), read-out: IC50 for inhibition of CYP1A1 in yRD+ cells) of the same compound?
Its pIC50 is 7.68.

What about the pIC50 (CYP1A1 enzyme; live yeast strain yRD−:: Bax (–CPR), read-out: IC50 for inhibition of CYP1A1 in yRD- cells) of the same compound?
Its pIC50 is 7.67.

With `Cc1nc2c([nH]1)c(=O)n(C)c(=O)n2Cc1ccco1` [Furafylline] as the compound, how does the pIC50 (CYP1A2 Supersomes) read?
The pIC50 was 5.21.
